“And” between values parts separate entries of the source, which are not always exact repeats. Identical values can stand only once. Inconclusive results and toxic doses are left out. Cut-off read from the data, not from the text of the source: active = T/C of 150% or more; inactive = T/C below 125%.
System: L1210 leukemia ip in BDF1 mice, survival T/C
Experiment: NCI In Vivo Anticancer Drug Screen. Data for tumor model L1210 Leukemia (intraperitoneal) in B6D2F1 (BDF1) mice
Details: endpoint: mean survival time, higher = longer survival
Outline: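 Ratio derived from survival: compound-dosed mice over vehicle-dosed mice, all bearing a transplantable tumor.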

[1] = dose: 100.0 mg/kg/injection, schedule: Q01DX009 (ip), vehicle: saline with Tween-80
[2] = dose: 100.0 mg/kg/injection, schedule: Q04DX003 (ip), vehicle: saline with Tween-80
[3] = dose: 200.0 mg/kg/injection, schedule: Q01DX009 (ip), vehicle: saline with Tween-80
[4] = dose: 200.0 mg/kg/injection, schedule: Q04DX003 (ip), vehicle: saline with Tween-80
[5] = dose: 400.0 mg/kg/injection, schedule: Q04DX003 (ip), vehicle: saline with Tween-80
[6] = dose: 100.0 mg/kg/injection, schedule: Q04DX002 (ip), vehicle: Klucel (hydroxypropylcellulose) (HPC)
[7] = dose: 200.0 mg/kg/injection, schedule: Q04DX002 (ip), vehicle: Klucel (hydroxypropylcellulose) (HPC)
[8] = dose: 100.0 mg/kg/injection, schedule: Q04DX003 (ip), vehicle: saline
[9] = dose: 200.0 mg/kg/injection, schedule: Q04DX003 (ip), vehicle: saline
[10] = dose: 400.0 mg/kg/injection, schedule: Q04DX003 (ip), vehicle: saline
[11] = dose: 100.0 mg/kg/injection, schedule: Q01DX001 (ip), vehicle: saline
[12] = dose: 200.0 mg/kg/injection, schedule: Q01DX001 (ip), vehicle: saline
[13] = dose: 400.0 mg/kg/injection, schedule: Q01DX001 (ip), vehicle: saline
[14] = dose: 100.0 mg/kg/injection, schedule: Q01DX009 (ip), vehicle: saline
[15] = dose: 200.0 mg/kg/injection, schedule: Q01DX009 (ip), vehicle: saline
[16] = dose: 400.0 mg/kg/injection, schedule: Q01DX009 (ip), vehicle: saline
[17] = dose: 100.0 mg/kg/injection, schedule: Q04DX003 (ip), vehicle: Klucel (hydroxypropylcellulose) (HPC)
[18] = dose: 200.0 mg/kg/injection, schedule: Q04DX003 (ip), vehicle: Klucel (hydroxypropylcellulose) (HPC)
[19] = dose: 400.0 mg/kg/injection, schedule: Q04DX003 (ip), vehicle: Klucel (hydroxypropylcellulose) (HPC)
[20] = dose: 50.0 mg/kg/injection, schedule: Q01DX009 (ip), vehicle: saline with Tween-80

Measured: T/C

COC(=O)N1C2C=CC(C2)N1C(=O)OC
inactive: dose: 50.0 mg/kg/injection, schedule: Q01DX009 (ip), vehicle: DMSO 96 % of control | dose: 100.0 mg/kg/injection, schedule: Q01DX009 (ip), vehicle: DMSO 93 % of control | dose: 100.0 mg/kg/injection, schedule: Q04DX003 (ip), vehicle: DMSO 97 % of control | dose: 200.0 mg/kg/injection, schedule: Q04DX003 (ip), vehicle: DMSO 95 % of control

CS(=O)(=O)OCC(OS(C)(=O)=O)C(COS(C)(=O)=O)OS(C)(=O)=O (stereo not given)
inactive: [1] 91 % of control | [2] 92 % of control | [3] 100 % of control | [4] 96 % of control | dose: 400.0 mg/kg/injection, schedule: Q01DX009 (ip), vehicle: saline with Tween-80 96 % of control | [5] 96 % of control

Cc1ccc(S(=O)(=O)N(CCCBr)c2ccc(C3(CCl)OCCO3)cc2)cc1
inactive: dose: 100.0 mg/kg/injection, schedule: Q01DX001 (ip), vehicle: Klucel (hydroxypropylcellulose) (HPC) 91 % of control | dose: 200.0 mg/kg/injection, schedule: Q01DX001 (ip), vehicle: Klucel (hydroxypropylcellulose) (HPC) 91 % of control | dose: 400.0 mg/kg/injection, schedule: Q01DX001 (ip), vehicle: Klucel (hydroxypropylcellulose) (HPC) 91 % of control

O=C(O)/C(=C\c1ccccc1Cl)c1ccccc1
inactive: [6] 94 % of control | [7] 90 % of control

CNCc1nc2ccccc2c(C)[n+]1[O-]
inactive: [8] 97 % of control | [9] 97 % of control | [10] 95 % of control

Cc1ccc(S(=O)(=O)OCCN(CCOS(=O)(=O)c2ccc(C)cc2)c2cccc([N+](=O)[O-])c2)cc1
inactive: dose: 50.0 mg/kg/injection, schedule: Q01DX001 (ip), vehicle: saline 97 % of control | [11] 100 % of control | [12] 97 % of control | [13] 88 % of control

COC(=O)c1ccc(SCCCN2CCOCC2)cc1
inactive: [14] 97 % of control | [8] 109 % of control | [15] 96 % of control | [9] 96 % of control | [16] 102 % of control | [10] 100 % of control

O=S1C(c2ccccc2)CC1c1ccccc1 (stereo not given)
inactive: [17] 100 % of control | [18] 105 % of control | [19] 96 % of control

S=C(NCCNC(=S)Nc1ccccc1)Nc1ccccc1
inactive: [20] 98 % of control | [1] 92 % of control | [3] 92 % of control

Clc1ccc(N=C/C=C/c2ccccc2)cc1
inactive: dose: 25.0 mg/kg/injection, schedule: Q04DX003 (ip), vehicle: other 95 % of control | dose: 50.0 mg/kg/injection, schedule: Q04DX003 (ip), vehicle: other 108 % of control | dose: 100.0 mg/kg/injection, schedule: Q04DX003 (ip), vehicle: other 100 % of control

CCOc1ccn(C2OC(COC(C)=O)C(OC3OC(COC(C)=O)C(OC(C)=O)C(OC(C)=O)C3OC(C)=O)C(OC(C)=O)C2OC(C)=O)c(=O)n1 (stereo not given)
inactive: dose: 22.5 mg/kg/injection, schedule: Q01DX001 (ip), vehicle: carboxymethylcellulose (CMC) 120 % of control | dose: 45.0 mg/kg/injection, schedule: Q01DX001 (ip), vehicle: carboxymethylcellulose (CMC) 103 % of control | dose: 90.0 mg/kg/injection, schedule: Q01DX001 (ip), vehicle: carboxymethylcellulose (CMC) 100 % of control | dose: 180.0 mg/kg/injection, schedule: Q01DX001 (ip), vehicle: carboxymethylcellulose (CMC) 100 % of control

CC(=O)NCCN(C)C
inactive: [14] 97 % of control | [8] 103 % of control | [15] 96 % of control | [9] 101 % of control | [16] 97 % of control | [10] 97 % of control

Nc1ccc(Cc2ccc(Br)cc2)cc1
inactive: dose: 75.0 mg/kg/injection, schedule: Q01DX001 (ip), vehicle: acetone 91 % of control | dose: 150.0 mg/kg/injection, schedule: Q01DX001 (ip), vehicle: acetone 94 % of control | dose: 300.0 mg/kg/injection, schedule: Q01DX001 (ip), vehicle: acetone 94 % of control

NC1CCCCC1
inactive: [8] 109 % of control | [9] 102 % of control | [10] 100 % of control

CNC(=O)NC
inactive: [8] 94 % of control | [9] 102 % of control | [10] 94 % of control

Clc1ccccc1-c1ncc2cnccn12
inactive: dose: 25.0 mg/kg/injection, schedule: Q01DX009 (ip), vehicle: saline with Tween-80 98 % of control | dose: 25.0 mg/kg/injection, schedule: Q04DX003 (ip), vehicle: saline with Tween-80 90 % of control | [20] 101 % of control | dose: 50.0 mg/kg/injection, schedule: Q04DX003 (ip), vehicle: saline with Tween-80 102 % of control | [1] 107 % of control | [2] 96 % of control and 92 % of control

CCC[CH2][Sn]([c]1ccccc1)([c]1ccccc1)[c]1ccccc1
inactive: dose: 25.6 mg/kg/injection, schedule: Q04DX002 (ip), vehicle: saline with Tween-80 90 % of control | dose: 64.0 mg/kg/injection, schedule: Q04DX002 (ip), vehicle: saline with Tween-80 90 % of control | [2] 88 % of control | dose: 160.0 mg/kg/injection, schedule: Q04DX002 (ip), vehicle: saline with Tween-80 93 % of control | [4] 96 % of control | dose: 400.0 mg/kg/injection, schedule: Q04DX002 (ip), vehicle: saline with Tween-80 97 % of control

CC(=O)C1CCC2C3CCC4(C)CC(=O)CCC4(C)C3C3OC3C12C (stereo not given)
inactive: dose: 100.0 mg/kg/injection, schedule: Q04DX003 (sc), vehicle: steriod suspending solution 98 % of control | dose: 200.0 mg/kg/injection, schedule: Q04DX003 (sc), vehicle: steriod suspending solution 96 % of control | dose: 400.0 mg/kg/injection, schedule: Q04DX003 (sc), vehicle: steriod suspending solution 102 % of control

CN1CCC2(CC1)C(=O)N(Cc1ccccc1)C(=O)C2c1ccccc1 (stereo not given)
inactive: dose: 25.0 mg/kg/injection, schedule: Q04DX002 (ip), vehicle: saline 108 % of control | [6] 93 % of control | dose: 100.0 mg/kg/injection, schedule: Q04DX002 (ip), vehicle: saline 104 % of control and 118 % of control | [7] 86 % of control

CCN(CC)CCOc1cccc(Oc2ccccc2)c1
inactive: dose: 50.0 mg/kg/injection, schedule: Q01DX009 (ip), vehicle: saline 96 % of control | [14] 117 % of control | [8] 98 % of control

Nc1ccccc1S(=O)(=O)Nc1ccccc1
inactive: dose: 100.0 mg/kg/injection, schedule: Q01DX009 (ip), vehicle: Klucel (hydroxypropylcellulose) (HPC) 98 % of control | [17] 92 % of control | dose: 200.0 mg/kg/injection, schedule: Q01DX009 (ip), vehicle: Klucel (hydroxypropylcellulose) (HPC) 95 % of control | [18] 97 % of control | dose: 400.0 mg/kg/injection, schedule: Q01DX009 (ip), vehicle: Klucel (hydroxypropylcellulose) (HPC) 87 % of control | [19] 100 % of control

CC(CC(C)(C)C)C(=O)Cl (stereo not given)
inactive: [11] 95 % of control | [12] 92 % of control | [13] 108 % of control

C=CC1CC=CCC1 (stereo not given)
inactive: [2] 98 % of control | [4] 97 % of control | [5] 102 % of control

From PubChem BioAssay AID248 (DTP/NCI, 2004)
